Literature values, collected in US20100215746A1, “PREVENTION OF CISPLATIN INDUCED DEAFNESS” (THE REGENTS OF THE UNIVERSITY OF MICHIGAN, priority 2002, published 2010).

Tests used:
[1] = system: neuropathic and ototoxic effects of cisplatin; conditions: co-administration with cisplatin
hearing = conditions: human, in vivo

Structure (SMILES)	effectiveness in ameliorating neuropathic and ototoxic effects of cisplatin [1]	reported incidence of cisplatin-induced hearing loss (hearing)
NCCCNCCSP(=O)(O)O [amifostine]	does not appear to be effective	–
N.N.[Cl][Pt][Cl] [cisplatin]	–	9-90%
